From US20240132431A1, “METHOD FOR ALKYLATING ACIDIC FUNCTIONAL GROUP” (Chugai Seiyaku Kabushiki Kaisha, priority 2021, published 2024)

Target: T1, Bcl-2 protein (Recombinant Human Bcl-2 Protein) (Homo sapiens, UniProt P10415)
T1 construct: purchased Novus NBP2-34889
Test: Binding evaluation of mixture library compounds to Bcl-2 using AS-MS (affinity selection mass spectrometry)
Conditions: AS-MS, mixture of 1200 compounds, Bcl-2, ASMS Ratio(%)=(A−C)/B×100; for ASMS ratio (%) n = 1: replicate n = 1; for ASMS ratio (%) n = 2: replicate n = 2
Procedure, shortened: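 Pooled library of ~1200 compounds ([…] each, final) incubated with recombinant human Bcl-2 (20 μM final) in Tris-HCl pH 7.4, NaCl, Tween-20, DTT buffer, dark, 23° C., 1 h. Bound fraction recovered by SEC spin column, organic extraction, reversed-phase LC/MS. ASMS Ratio (%) = (A−C)/B×100 versus protein-free standard and SEC blank.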

T1 sequence (P10415 whole entry): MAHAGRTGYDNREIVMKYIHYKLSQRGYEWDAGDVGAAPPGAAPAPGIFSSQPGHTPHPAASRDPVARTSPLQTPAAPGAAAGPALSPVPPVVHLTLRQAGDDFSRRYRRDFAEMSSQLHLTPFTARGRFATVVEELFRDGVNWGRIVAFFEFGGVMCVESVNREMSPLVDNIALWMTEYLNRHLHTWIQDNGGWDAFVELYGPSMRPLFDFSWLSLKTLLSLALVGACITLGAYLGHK

Row | ASMS ratio (%) n = 1 [%] | ASMS ratio (%) n = 2 [%] | SMILES
1 | 1.1 | −0.4 | CCOc1cncc(-c2ccc(C(=O)N3CCN(c4ccc(C(=O)NCC(F)(F)F)cc4)CC3)c3ccccc23)c1 [B1K036-01, 4-[4-[4-(5-Ethoxypyridin-3-yl)naphthalene-1-carbonyl]piperazin-1-yl]-N-(2,2,2-trifluoroethyl)benzamide]
2 | 0.8 | 1.9 | CCOc1cccc(-c2cc(C(=O)N3CCN(c4ccc(C(=O)NCC(F)(F)F)cc4)CC3)cc(C(C)(C)C)c2)c1 [B1K037-01, 4-[4-[3-tert-Butyl-5-(3-ethoxyphenyl)benzoyl]piperazin-1-yl]-N-(2,2,2-trifluoroethyl)benzamide]
3 | 0.6 | −1.8 | CCOc1cncc(-c2cc(C(=O)N3CCN(c4ccc(C(=O)NCC(F)(F)F)cc4)CC3)cc(C(C)(C)C)c2)c1 [B1K038-01, 4-[4-[3-tert-Butyl-5-(5-ethoxypyridin-3-yl)benzoyl]piperazin-1-yl]-N-(2,2,2-trifluoroethyl)benzamide]
4 | 0.0 | 0.0 | CCOc1cccc(C#Cc2cc(C(=O)N3CCN(c4ccc(C(=O)NCC(F)(F)F)cc4)CC3)cc(C(F)(F)F)c2)c1 [B1K041-01, 4-[4-[3-[2-(3-Ethoxyphenyl)ethynyl]-5-(trifluoromethyl)benzoyl]piperazin-1-yl]-N-(2,2,2-trifluoroethyl)benzamide]
5 | 5.0 | −0.1 | CCOc1cncc(C#Cc2cc(C(=O)N3CCN(c4ccc(C(=O)NCC(F)(F)F)cc4)CC3)cc(C(F)(F)F)c2)c1 [B1K042-01, 4-[4-[3-[2-(5-Ethoxypyridin-3-yl)ethynyl]-5-(trifluoromethyl)benzoyl]piperazin-1-yl]-N-(2,2,2-trifluoroethyl)benzamide]
6 | 3.8 | 1.9 | CCOc1cccc(-c2cnn(-c3cc(C(=O)N4CCN(c5ccc(C(=O)NCC(F)(F)F)cc5)CC4)cc(C(F)(F)F)c3)c2)c1 [B1K043-01, 4-[4-[3-[4-(3-Ethoxyphenyl)pyrazol-1-yl]-5-(trifluoromethyl)benzoyl]piperazin-1-yl]-N-(2,2,2-trifluoroethyl)benzamide]
7 | 2.6 | 1.0 | CCOc1cncc(-c2cnn(-c3cc(C(=O)N4CCN(c5ccc(C(=O)NCC(F)(F)F)cc5)CC4)cc(C(F)(F)F)c3)c2)c1 [B1K044-01, 4-[4-[3-[4-(5-Ethoxypyridin-3-yl)pyrazol-1-yl]-5-(trifluoromethyl)benzoyl]piperazin-1-yl]-N-(2,2,2-trifluoroethyl)benzamide]
8 | 1.5 | −0.1 | CCOc1cccc(-c2ccccc2CN2CCN(c3ccc(C(=O)NCC(F)(F)F)cc3)CC2)c1 [B1K045-01, 4-[4-[[2-(3-Ethoxyphenyl)phenyl]methyl]piperazin-1-yl]-N-(2,2,2-trifluoroethyl)benzamide]
9 | −0.1 | 0.5 | CCOc1cncc(-c2ccccc2CN2CCN(c3ccc(C(=O)NCC(F)(F)F)cc3)CC2)c1 [B1K046-01, 4-[4-[[2-(5-Ethoxypyridin-3-yl)phenyl]methyl]piperazin-1-yl]-N-(2,2,2-trifluoroethyl)benzamide]
10 | 0.1 | 1.2 | CCOc1cncc(-c2ccc(CN3CCN(c4ccc(C(=O)NCC(F)(F)F)cc4)CC3)cc2C)c1 [B1K048-01, 4-[4-[[4-(5-Ethoxypyridin-3-yl)-3-methylphenyl]methyl]piperazin-1-yl]-N-(2,2,2-trifluoroethyl)benzamide]
11 | −3.3 | 1.5 | CCOc1cccc(-c2ccc(CN3CCN(c4ccc(C(=O)NCC(F)(F)F)cc4)CC3)c(CC)c2)c1 [B1K049-01, 4-[4-[[4-(3-Ethoxyphenyl)-2-ethylphenyl]methyl]piperazin-1-yl]-N-(2,2,2-trifluoroethyl)benzamide]
12 | 2.8 | 2.0 | CCOc1cccc(-c2ccc(CN3CCN(c4ccc(C(=O)NCC(F)(F)F)cc4)CC3)cc2F)c1 [B1K051-01, 4-[4-[[4-(3-Ethoxyphenyl)-3-fluorophenyl]methyl]piperazin-1-yl]-N-(2,2,2-trifluoroethyl)benzamide]
13 | −3.3 | 0.5 | CCOc1cncc(-c2ccc(CN3CCN(c4ccc(C(=O)NCC(F)(F)F)cc4)CC3)cc2F)c1 [B1K052-01, 4-[4-[[4-(5-Ethoxypyridin-3-yl)-3-fluorophenyl]methyl]piperazin-1-yl]-N-(2,2,2-trifluoroethyl)benzamide]
14 | 0.0 | 0.0 | CCOc1cncc(-c2ccc(CN3CCN(c4ccc(C(=O)NCC(F)(F)F)cc4)CC3)c(OC)c2)c1 [B1K054-01, 4-[4-[[4-(5-Ethoxypyridin-3-yl)-2-methoxyphenyl]methyl]piperazin-1-yl]-N-(2,2,2-trifluoroethyl)benzamide]
15 | −0.8 | 0.0 | CCOc1cccc(-c2cc(CN3CCN(c4ccc(C(=O)NCC(F)(F)F)cc4)CC3)cc(OCC)c2)c1 [B1K055-01, 4-[4-[[3-Ethoxy-5-(3-ethoxyphenyl)phenyl]methyl]piperazin-1-yl]-N-(2,2,2-trifluoroethyl)benzamide]
16 | 3.3 | 0.2 | CCOc1cncc(-c2cc(CN3CCN(c4ccc(C(=O)NCC(F)(F)F)cc4)CC3)cc(OCC)c2)c1 [B1K056-01, 4-[4-[[3-Ethoxy-5-(5-ethoxypyridin-3-yl)phenyl]methyl]piperazin-1-yl]-N-(2,2,2-trifluoroethyl)benzamide]
17 | 1.0 | −2.6 | CCOc1cccc(-c2cc(CN3CCN(c4ccc(C(=O)NCC(F)(F)F)cc4)CC3)cc(OC(C)C)c2)c1 [B1K057-01, 4-[4-[[3-(3-Ethoxyphenyl)-5-propan-2-yloxyphenyl]methyl]piperazin-1-yl]-N-(2,2,2-trifluoroethyl)benzamide]
18 | 1.3 | 0.1 | CCOc1cncc(-c2cc(CN3CCN(c4ccc(C(=O)NCC(F)(F)F)cc4)CC3)cc(OC(C)C)c2)c1 [B1K058-01, 4-[4-[[3-(5-Ethoxypyridin-3-yl)-5-propan-2-yloxyphenyl]methyl]piperazin-1-yl]-N-(2,2,2-trifluoroethyl)benzamide]
19 | 2.8 | −1.3 | CCOc1cccc(-c2cc(CN3CCN(c4ccc(C(=O)NCC(F)(F)F)cc4)CC3)cc(C(F)(F)F)c2)c1 [B1K061-01, 4-[4-[[3-(3-Ethoxyphenyl)-5-(trifluoromethyl)phenyl]methyl]piperazin-1-yl]-N-(2,2,2-trifluoroethyl)benzamide]
20 | 1.2 | −0.3 | CCOc1cncc(-c2cc(CN3CCN(c4ccc(C(=O)NCC(F)(F)F)cc4)CC3)cc(C(F)(F)F)c2)c1 [B1K062-01, 4-[4-[[3-(5-Ethoxypyridin-3-yl)-5-(trifluoromethyl)phenyl]methyl]piperazin-1-yl]-N-(2,2,2-trifluoroethyl)benzamide]
21 | 1.4 | 0.7 | CCOc1cncc(-c2cc(CN3CCN(c4ccc(C(=O)NCC(F)(F)F)cc4)CC3)cc(OC(F)(F)F)c2)c1 [B1K064-01, 4-[4-[[3-(5-Ethoxypyridin-3-yl)-5-(trifluoromethoxy)phenyl]methyl]piperazin-1-yl]-N-(2,2,2-trifluoroethyl)benzamide]
22 | 5.9 | −5.6 | CCOc1cccc(-c2ccc(CN3CCN(c4ccc(C(=O)NCC(F)(F)F)cc4)CC3)c3ccccc23)c1 [B1K065-01, 4-[4-[[4-(3-Ethoxyphenyl)naphthalen-1-yl]methyl]piperazin-1-yl]-N-(2,2,2-trifluoroethyl)benzamide]
23 | 1.8 | −0.7 | CCOc1cncc(-c2ccc(CN3CCN(c4ccc(C(=O)NCC(F)(F)F)cc4)CC3)c3ccccc23)c1 [B1K066-01, 4-[4-[[4-(5-Ethoxypyridin-3-yl)naphthalen-1-yl]methyl]piperazin-1-yl]-N-(2,2,2-trifluoroethyl)benzamide]
24 | 5.1 | 1.8 | CCOc1cccc(-c2csc(CN3CCN(c4ccc(C(=O)NCC(F)(F)F)cc4)CC3)c2)c1 [B1K067-01, 4-[4-[[4-(3-Ethoxyphenyl)thiophen-2-yl]methyl]piperazin-1-yl]-N-(2,2,2-trifluoroethyl)benzamide]
25 | 2.6 | −1.4 | CCOc1cncc(-c2csc(CN3CCN(c4ccc(C(=O)NCC(F)(F)F)cc4)CC3)c2)c1 [B1K068-01, 4-[4-[[4-(5-Ethoxypyridin-3-yl)thiophen-2-yl]methyl]piperazin-1-yl]-N-(2,2,2-trifluoroethyl)benzamide]

Row | SMILES | ASMS ratio (%) n = 1 [%] | ASMS ratio (%) n = 2 [%]
26 | CCOc1cccc(-c2ccc(CN3CCN(c4ccc(C(=O)NCC(F)(F)F)cc4)CC3)cc2C)c1 [B1K047-01] | 3.3 | 0.5
27 | CCOc1cncc(-c2ccc(CN3CCN(c4ccc(C(=O)NCC(F)(F)F)cc4)CC3)c(CC)c2)c1 [B1K050-01] | 0.0 | 0.0
28 | CCOc1cccc(-c2ccc(CN3CCN(c4ccc(C(=O)NCC(F)(F)F)cc4)CC3)c(OC)c2)c1 [B1K053-01] | −0.5 | −3.3
29 | CCOc1cccc(-c2cc(OC)c(CN3CCN(c4ccc(C(=O)NCC(F)(F)F)cc4)CC3)c(OC)c2)c1 [B1K059-01] | 3.0 | −1.9
30 | CCOc1cncc(-c2cc(OC)c(CN3CCN(c4ccc(C(=O)NCC(F)(F)F)cc4)CC3)c(OC)c2)c1 [B1K060-01] | 0.0 | 0.0
